# According to patent US20180071354A1, “SELECTIVE BREEDING METHOD OF ANTITUMOR/ANTICANCER CAMELLIA SINENSIS STRAIN, AND TEA PRODUCT OF SUCH STRAIN” (FUJIAN AGRICULTURE AND FORESTRY UNIVERSITY, priority 2015, published 2018):
# Assays:
# [1] = tested on: human liver cancer cell line HepG2; test: In vitro antitumor/anticancer testing (CCK-8), HepG2; assay type: cell-based; details: 48 h
# Method: Each of Tea Product 1 and Conventional Tea Product obtained in section A of this example was used to prepare test tea samples according to the method described below. A proper amount of the respective tea product was added into sterile water to prepare a stock solution with a concentration of 100 mg/mL, followed by using a membrane filter with a pore size of 0.22 μm to conduct vacuum filtration and sterilization. The resulting stock solution was diluted with a respective complete medium shown in Table 3 below to form test tea samples with different concentrations. In other words, the thus obtained test tea samples to be used for treating a respective cancer/tumor cell line shown in Table 3 were prepared using the same complete medium as that for the respective cancer/tumor cell line.
# Specifically, each of the aforesaid commercially available agents was subjected to the method described below to prepare comparative test samples. A proper amount of a respective commercially available agent was dissolved in phosphate-buffered saline (PBS) to prepare a stock solution with a concentration of 5 mg/mL, followed by using a membrane filter with a pore size of 0.22 μm to conduct vacuum filtration and sterilization. The resulting stock solution was diluted with a respective complete medium shown in Table 3 below to form comparative test samples with different concentrations. To be specific, the comparative test samples prepared from the respective commercially available agent have the concentrations shown in Table 2 below. The thus obtained comparative test samples to be used for treating a respective cancer/tumor cell line shown in Table 3 were prepared using the same complete medium as that for the respective cancer/tumor cell line.
# The following cancer/tumor cells purchased from Chinese Academy of Sciences, Shanghai Institutes for Biological Sciences, Institute of Biochemistry and Cell Biology were used for in vitro antitumor/anticancer testing: human liver cancer cell line HepG2, human ovarian cancer cell line SK-OV-3, human cervical cancer cell line Hela, human lung cancer cell line A549, human glioblastoma cell line U-87MG, human mammary gland/duct cancer cell line BT-474, human prostate cancer cell line PC-3, human leukemia cell line HL-60, human gastric cancer cell line SMMC-7721, human colon cancer cell line HCT-116, human squamous cell carcinoma cell line A431, human leukemia cell line K562, human pancreatic cancer cell line PANC-1, and human gastric cancer cell line BGC-823.
# The cultivation of each cancer/tumor cell line is described as follows. The cancer/tumor cancer cells were cultivated in the respective complete medium supplemented with 100 μg/mL penicillin and 100 μg/mL streptomycin in an incubator (37° C., 100% relative humidity, 5% CO2). When adherent cancer/tumor cells reached 80% confluence during the log-phase, cell detachment was conducted using 0.6 mL of 0.3% trypsin. Afterwards, a cell suspension having a cell density of 1.0×10^4 cells/mL was prepared. 100 μL of the cell suspension (i.e. 1000 cancer/tumor cells) was added into wells of a 96-well plate (Cat. No. 3599, Corning Costar), followed by cultivation in an incubator (37° C., 100% relative humidity, 5% CO2) for 24 hours.
# As experimental groups, the tumor/cancer cells of each cell line were treated with the test tea samples prepared from one or more of the tea products and the comparative test samples prepared from one or more of the commercially available agents as obtained in section B of this example (for more detailed information about the tea product(s) and the commercially available product (s) used to treat each cell line, please see Table 4 below). To be specific, 6 to 10 test tea samples prepared from the same tea product and having different concentrations, as well as 6 to 10 comparative test samples prepared from the same commercially available agent and having different concentrations, were utilized to treat the tumor/cancer cells of each cell line. […]
# [2] = tested on: HepG2 transplanted tumor (inoculated tumor tissue pieces); test: In vivo antitumor testing, second and third experiments (Animal Model 2); parameters: species or system BALB/c nude mice; details: second experiment
# Method: The establishment of Animal Model 2 is described below. Male BALB/c nude mice (5 to 6 weeks of age, a body weight of 15 to 16 g, certificate number: SCXK (Hu) 2012-0002) were purchased from Shanghai Silaike Experiment Animal Co., Ltd and were acclimatized for one week. A cell suspension of HepG2 cells having a concentration of 1×10^7 cells/mL was prepared using the same method as that for preparing the cell suspension for Animal Model 1. 0.2 mL of the cell suspension was subcutaneously injected into the back of each of 5 nude mice. […] Tea Product 1 and Conventional Tea Product obtained in section A of Example 3, as well as 5-fluorouracil mentioned in section B of Example 3, were examined for their in vivo antitumor activity. […] In the third experiment, nude mice of Animal Model 2 were divided into three groups, i.e. a control group (n=11), a Tea Product 1 group (n=11), and a Conventional Tea Product group (n=8). […] In all the three experiments above, each of the nude mice was sacrificed 24 hours after the termination of the treatment. The tumor was collected and weighed. The antitumor effect of a respective test substance was evaluated by virtue of the percent tumor growth inhibition (%), which was calculated using the following Equation II: E=[(F−G)/(F)]×100% (I) • E=percent tumor growth inhibition (%) • F=tumor weight of control group • G=tumor weight of respective test substance group The experimental data are expressed as mean±SEM (standard error of the mean). The experimental data were subjected to one-way analysis of variance (ANOVA) using SPSS (Statistical Package for Social Sciences) software package version 11.5, such that the difference between the groups could be evaluated. The data regarding the tumor weights of the groups were subjected to t-test. Statistical significance is indicated by p<0.05.
# [3] = 35 days, 5-fluorouracil 15.0 mg/kg per day intra-abdominal injection, Tea Product 1 0.6 mL of 10% per day intragastric gavage
compound,measurement,setting,value
O=c1[nH]cc(F)c(=O)[nH]1 [5-fluorouracil],inhibition at 0.078125 µg/mL,"[1]; 0.078125 μg/mL, read-out: Percent growth inhibition",10.9%
same,inhibition at 0.15625 µg/mL,"[1]; 0.15625 μg/mL, read-out: Percent growth inhibition",24.5%
same,inhibition at 0.3125 µg/mL,"[1]; 0.3125 μg/mL, read-out: Percent growth inhibition",37.5%
same,inhibition at 0.625 µg/mL,"[1]; 0.625 μg/mL, read-out: Percent growth inhibition",63.7%
same,inhibition at 1.25 µg/mL,"[1]; 1.25 μg/mL, read-out: Percent growth inhibition",83.3%
same,inhibition at 2.5 µg/mL,"[1]; 2.5 μg/mL, read-out: Percent growth inhibition",86%
same,inhibition at 5 µg/mL,"[1]; 5 μg/mL, read-out: Percent growth inhibition",89.1%
same,IC50,[1]; Table 5 concentration series,0.457 µg/mL
same,Body weight Before treatment,"[2]; Animal Model 2, baseline",17.22 g
same,Body weight After treatment,[2]; [3],24.32 g
same,Percent tumor growth inhibition,[2]; [3],48.96%
same,Tumor weight,[2]; [3],0.034 g
